# Data taken from patent publication US20250163119A1, “COMPOUNDS FOR THE TREATMENT OF DIABETES OR OBESITY” (Eli Lilly and Company, priority 2023, published 2025).
# *1 amine or outer side, *2 acyl side, *3 side chain or, on linkers, in order; H or OH if unused. Where a SMILES comes first, the peptide text is derived from it. Side-chain parts run from the residue outwards. [ ]: non-standard residue; d: D form. The star is where a group is joined. C20 diacid = O=C(O)CCCCCCCCCCCCCCCCCCC(=O)*; γGlu = O=C(O)[C@H](CCC(=O)[*:2])N[*:1]; αMeL = CC(C)C[C@](C)(N)C(=O)O; AEEA = NCCOCCOCC(=O)O
# Experiments:
# human CRHR2 = target: T1, human CRHR2 (Homo sapiens, UniProt Q13324); assay: Human CRHR2 cAMP assay (HTRF) in HEK293 cells stably expressing human CRHR2; format: cell-based; conditions: HEK293 cells overexpressing human CRHR2; relative EC50, maximum 10 nM human UCN2; mean ± SE; read-out: hCRHR2 cAMP EC50 (pM, ± SE)
# T1 construct: expressed in transfected cells
# T1 sequence (Q13324 1-438 isoform Q13324-2): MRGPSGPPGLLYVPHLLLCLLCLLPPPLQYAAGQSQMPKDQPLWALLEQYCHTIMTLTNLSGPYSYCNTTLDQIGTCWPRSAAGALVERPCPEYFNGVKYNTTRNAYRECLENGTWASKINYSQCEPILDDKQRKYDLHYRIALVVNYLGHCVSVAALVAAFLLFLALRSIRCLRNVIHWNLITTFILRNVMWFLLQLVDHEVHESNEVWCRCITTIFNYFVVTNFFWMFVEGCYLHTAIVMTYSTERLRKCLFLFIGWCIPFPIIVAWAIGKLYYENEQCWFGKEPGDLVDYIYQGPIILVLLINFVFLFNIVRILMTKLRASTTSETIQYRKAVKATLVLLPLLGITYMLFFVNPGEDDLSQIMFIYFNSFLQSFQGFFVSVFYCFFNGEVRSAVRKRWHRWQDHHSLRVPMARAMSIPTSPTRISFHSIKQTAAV
# Experimental: (§1) The corticotropin-releasing hormone (CRH) receptor 1 and 2 (CRHR1 and CRHR2) are GPCRs that were functionally coupled to Gs proteins. Stimulation of these receptors results in an increased production of intracellular cAMP, which can be detected using standard in vitro technologies. In vitro activity of peptides was measured by the amount of cAMP formed in human CRHR1 and CRHR2 overexpressed cells.
# (§2) Human CRHR1 and CRHR2 receptors were stably expressed in human embryonic kidney cells (HEK293) under control of a pcDNA expression vector. The HEK293 cell line was cultured in DMEM 1× (Gibco, 93-0152DK) supplemented with 10% FBS, 1 mM sodium pyruvate, 1×MEM NEAA, 1× GlutaMAX and 10 mM HEPES. The plasmids of human CRHR1-pQCXIP (T7364) and human CRHR2b-R2683puro (T16761) DNA were transfected into HEK293 cells using Lipo fectAMINE 3000 Transfection reagent (Invitrogen, L3000001). After 20 days under selection, the mRNA levels from different clones were measured to confirm the expression of human CRHR1 and CRHR2 genes. To determine the function of over-expressed CRHR cells, the intracellular cAMP levels in response to human UCN1 and UCN2 were measured and compared to the expression of CRHR1 and CRHR2 mRNA in each clone.
# (§3) Human CRHR1 cells were cultured in DMEM 1× (Gibco, 93-0152DK) supplemented with 10% FBS, 1 mM sodium pyruvate, 1×MEM NEAA, 1×GlutaMAX, 10 mM HEPES, and 800 μg/ml G418. Human CRHR2 cells were cultured at the same media (DMEM 1×, 10% FBS, 1 mM sodium pyruvate, 1×MEM NEAA, 1×GlutaMAX, 10 mM HEPES) in the presence of 0.5 ug/mL puromycin. Cultured cells were grown to 90% confluency and harvested. The cells were frozen at 10×10e6/ml in a mixture of […] fetal bovine serum plus 7% DMSO and stored in liquid nitrogen until use.
# (§4) On the day of the assay, the frozen cells were thawed and diluted in assay buffer (Phenol Red free MEM (Corning, 17-305-CV, lot #32121010), 0.1% Casein (Sigma C4765, lot #SLCG2120), 5 mM HEPES pH 7.4 containing 0.25 mM IBMX). 10 ul of human CRHR1 cells (25,000 cells) or 10 μL of human CRHR2 cells (5,000 cells) were dispensed into each well of white poly-D-lysine coated 384-well plates (Corning cat #354661). Test compounds diluted in DMSO were added (200 nL/well) in a 1:3 dilution series using ECHO acoustic liquid handler (Beckman). The mixture of cells and test compounds were incubated at 37° C. for 1 hour for the hCRHR1 plate, while the CRHR2 plates were incubated at room temperature for 30 min.
# (§5) The amount of intracellular cAMP was quantitated using HTRF technology (Homogeneous Time Resolved Fluorescence; Cisbio) as per vendor instructions. Briefly, 10 uL CAMP-d2 conjugate and 10 uL anti-CAMP-cryptate conjugate in lysis buffer were incubated with the treated cells at room temperature for 60 min. The HTRF signal was immediately detected using an Envision plate reader (Perkin-Elmer) to calculate the ratio of fluorescence at 665 to 620 nm.
# (§6) Raw fluorescence data for concentration curves of the peptides in Table 2 and Table 3 were converted to cAMP amount (pmol/well) using a cAMP standard curve generated for each experiment.
# human CRHR1 = target: T2, human CRHR1 (Homo sapiens, UniProt P34998); assay: Human CRHR1 cAMP assay (HTRF) in HEK293 cells stably expressing human CRHR1; format: cell-based; conditions: HEK293 cells overexpressing human CRHR1; relative EC50, maximum 66 nM human UCN1; mean ± SE; read-out: hCRHR1 cAMP EC50 (pM, ± SE)
# T2 construct: expressed in transfected cells
# T2 sequence (P34998 24-415): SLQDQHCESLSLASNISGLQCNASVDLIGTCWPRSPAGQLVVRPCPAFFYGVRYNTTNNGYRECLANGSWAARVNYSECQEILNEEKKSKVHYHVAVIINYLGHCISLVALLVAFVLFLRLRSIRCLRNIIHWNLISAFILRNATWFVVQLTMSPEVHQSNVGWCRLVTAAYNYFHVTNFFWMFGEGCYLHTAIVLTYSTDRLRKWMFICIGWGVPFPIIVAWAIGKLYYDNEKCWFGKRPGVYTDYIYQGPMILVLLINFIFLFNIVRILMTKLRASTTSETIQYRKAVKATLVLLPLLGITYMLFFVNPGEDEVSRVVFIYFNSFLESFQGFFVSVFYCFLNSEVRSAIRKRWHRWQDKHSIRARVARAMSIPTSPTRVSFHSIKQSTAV
# Experimental: as §1, §2, §3, §4, §5, §6
EC50 (human CRHR2) [pM],EC50 (human CRHR1) [pM],Structure (SMILES)
10.1 ± 2.5,> 1e+07,"CC[C@H](C)[C@H](NC(=O)[C@H](CCC(=O)O)NC(=O)[C@H](C)NC(=O)[C@H](C)NC(=O)[C@H](CCC(=O)O)NC(=O)[C@H](CCCCNC(=O)CC[C@H](NC(=O)CNC(=O)[C@H](CCCCN)NC(=O)[C@H](CCC(=O)O)NC(=O)[C@H](CCCCN)NC(=O)[C@H](CCC(=O)O)NC(=O)[C@H](CCCCN)NC(=O)[C@H](CCC(=O)O)NC(=O)CCCCCCCCCCCCCCCCCCC(=O)O)C(=O)O)NC(=O)[C@H](C)NC(=O)[C@H](CCC(N)=O)NC(=O)[C@H](CCC(N)=O)NC(=O)[C@H](CCCNC(=N)N)NC(=O)[C@H](C)NC(=O)[C@H](CCCCN)NC(=O)[C@H](CCC(=O)O)NC(=O)[C@H](C)NC(=O)[C@H](CCCNC(=N)N)NC(=O)[C@H](CCC(=O)O)NC(=O)[C@H](CCC(N)=O)NC(=O)[C@H](CCC(=O)O)NC(=O)[C@H](CC(C)C)NC(=O)[C@@H](NC(=O)[C@H](CCCCN)NC(=O)[C@H](CCC(N)=O)NC(=O)[C@H](CC(C)C)NC(=O)[C@](C)(CC(C)C)NC(=O)C(C)(C)NC(=O)[C@@H](NC(=O)[C@@H]1CCCN1C(=O)[C@@H](NC(=O)[C@H](CC(=O)O)NC(=O)[C@](C)(CC(C)C)NC(=O)[C@H](CO)NC(=O)[C@@H](NC(=O)[C@@H](NC(=O)[C@@H](NC(=O)[C@H](CO)NC(=O)[C@@H]1CCCN1C(=O)[C@H](CO)NC(=O)CNC(C)=O)[C@@H](C)CC)C(C)C)[C@@H](C)O)C(C)C)[C@@H](C)O)[C@@H](C)CC)C(=O)N[C@@H](CC(C)C)C(=O)N[C@@H](C)C(=O)N[C@@H](CCC(N)=O)C(=O)N[C@H](C(N)=O)C(C)C [SEQ ID NO: 6, Ac-GSPSIVTS αMeL DVPT Aib αMeL LQKILEQERAEKARQQAK(γE-GKEKEKE-CO-(CH2)18-CO2H)EAAEILAQV-NH2]"
5.7 ± 0.1,> 1e+07,"CC[C@H](C)[C@H](NC(C)=O)C(=O)N[C@H](C(=O)N[C@H](C(=O)N[C@@H](CO)C(=O)N[C@@](C)(CC(C)C)C(=O)N[C@@H](CC(=O)O)C(=O)N[C@@H](C(=O)N1CCC[C@H]1C(=O)N[C@H](C(=O)NCC(=O)N[C@@](C)(CC(C)C)C(=O)N[C@@H](CC(C)C)C(=O)N[C@@H](CCC(N)=O)C(=O)N[C@H](C(=O)N[C@@H](CCCCN)C(=O)N[C@@H](CC(C)C)C(=O)N[C@@H](CCC(=O)O)C(=O)N[C@@H](CCC(N)=O)C(=O)N[C@@H](CCC(=O)O)C(=O)N[C@@H](CCCNC(=N)N)C(=O)N[C@@H](C)C(=O)N[C@@H](CCC(=O)O)C(=O)N[C@@H](CCCCN)C(=O)N[C@@H](C)C(=O)N[C@@H](CCCNC(=N)N)C(=O)N[C@@H](CCC(N)=O)C(=O)N[C@@H](CCC(N)=O)C(=O)N[C@@H](C)C(=O)N[C@@H](CCCCNC(=O)CC[C@H](NC(=O)COCCOCCNC(=O)CC[C@H](NC(=O)CCCCCCCCCCCCCCCCCCC(=O)O)C(=O)O)C(=O)O)C(=O)N[C@@H](CCC(=O)O)C(=O)N[C@@H](CC(N)=O)C(=O)N[C@H](C(=O)N[C@@H](CCC(=O)O)C(=O)N[C@H](C(=O)N[C@@H](CC(C)C)C(=O)N[C@@H](C)C(=O)N[C@@H](CCC(N)=O)C(=O)N[C@H](C(N)=O)C(C)C)[C@@H](C)CC)[C@@H](C)O)[C@@H](C)CC)[C@@H](C)O)C(C)C)[C@@H](C)O)C(C)C [SEQ ID NO: 30, Ac-IVTS αMeL D (D-Val) PTG αMeL LQIKLEQERAEKARQQAK(γE-(2-[2-(2-Amino-ethoxy)-ethoxy]-acetyl)-γE-CO-(CH2)18-CO2H)ENTEILAQV-NH2] (Ac-IVTS[αMeL]D[dV]PTG[αMeL]LQIKLEQERAEKARQQAK([γGlu-AEEA-γGlu-C20 diacid])ENTEILAQV-NH2)"
4.5 ± 0.7,> 1e+07,"CC[C@H](C)[C@H](NC(C)=O)C(=O)N[C@H](C(=O)N[C@H](C(=O)N[C@@H](CO)C(=O)N[C@@](C)(CC(C)C)C(=O)N[C@@H](CC(=O)O)C(=O)N[C@@H](C(=O)N1CCC[C@H]1C(=O)N[C@H](C(=O)NCC(=O)N[C@@](C)(CC(C)C)C(=O)N[C@@H](CC(C)C)C(=O)N[C@@H](CCC(N)=O)C(=O)N[C@H](C(=O)N[C@@H](CCCCN)C(=O)N[C@@H](CC(C)C)C(=O)N[C@@H](CCC(=O)O)C(=O)N[C@@H](CCC(N)=O)C(=O)N[C@@H](CCC(=O)O)C(=O)N[C@@H](CCCNC(=N)N)C(=O)N[C@@H](C)C(=O)N[C@@H](CCC(=O)O)C(=O)N[C@@H](CCCCN)C(=O)N[C@@H](C)C(=O)N[C@@H](CCCNC(=N)N)C(=O)N[C@@H](CCC(N)=O)C(=O)N[C@@H](CCC(N)=O)C(=O)N[C@@H](C)C(=O)N[C@@H](CCCCNC(=O)CC[C@H](NC(=O)CC[C@H](NC(=O)COCCOCCNC(=O)CCCCCCCCCCCCCCCCCCC(=O)O)C(=O)O)C(=O)O)C(=O)N[C@@H](CCC(=O)O)C(=O)N[C@@H](CC(N)=O)C(=O)N[C@H](C(=O)N[C@@H](CCC(=O)O)C(=O)N[C@H](C(=O)N[C@@H](CC(C)C)C(=O)N[C@@H](C)C(=O)N[C@@H](CCC(N)=O)C(=O)N[C@H](C(N)=O)C(C)C)[C@@H](C)CC)[C@@H](C)O)[C@@H](C)CC)[C@@H](C)O)C(C)C)[C@@H](C)O)C(C)C [SEQ ID NO: 31, Ac-IVTS αMeL D (D-Val) PTG αMeL LQIKLEQERAEKARQQAK((γE)2-(2-[2-(2-Amino-ethoxy)-ethoxy]-acetyl)-CO-(CH2)18-CO2H)ENTEILAQV-NH2] (Ac-IVTS[αMeL]D[dV]PTG[αMeL]LQIKLEQERAEKARQQAK([γGlu-γGlu-AEEA-C20 diacid])ENTEILAQV-NH2)"
